In ChEMBL document CHEMBL1141836, “Sporovexins A-C and a new preussomerin analog: antibacterial and antifungal metabolites from the coprophilous fungus Sporormiella vexans” (1999):
Calls of active or inactive are those of the source. The rule behind the calls is not given here.

Tests used:
Candida albicans = test: Antifungal activity against Candida albicans ATCC 10453 at 200 ug/disk by standard disk assay; format: functional, organism-based
Bacillus subtilis = test: Antibacterial activity against Bacillus subtilis ATCC 6051 at 100 ug/disk by standard disk assay; format: functional; settings: read-out: IZ
Ascobolus = test: Antifungal activity against Ascobolus furfuraceus NRRL 6460 assessed as reduction in radical growth rate at 200 ug/disk by centerpoint inoculation disk assay; format: functional; design: scale not given: the % may be the effect or the level left

Structure (SMILES)	Activity (Candida albicans)	zone of inhibition at 100 µg/disc (Bacillus subtilis) [mm]	Activity (Ascobolus) [%]
CC(CCOc1ccc(C(=O)NCCC(=O)O)cc1)C(=O)O (configuration not stated)	inactive		
CC(C(=O)O)C(O)COc1ccc(C(=O)O)cc1 (configuration not stated)	inactive		
CC(CCOc1ccc(C(=O)O)cc1)C(=O)O (configuration not stated) [SPOROVEXIN A]	inactive	9	90
O=C1C[C@@H](O)[C@]23Oc4ccc(O)c5c4[C@](Oc4cccc1c42)(O3)[C@@H]1O[C@@H]1[C@H]5O	inactive		40
